Results as given in ChEMBL document CHEMBL4321845, “Discovery and Characterization of Potent Pan-Genotypic HCV NS5A Inhibitors Containing Novel Tricyclic Central Core Leading to Clinical Candidate” (J Med Chem, 2019).

Experiments:
[1] = Drug metabolism in rat liver microsomes assessed as metabolic rate at 1 uM preincubated for 5 mins before NADPH addition and measured up to 30 mins by LC-MS/MS analysis; type: ADME, Microsome; settings: 0.5 h
[2] = Drug metabolism in human liver microsomes assessed as metabolic rate at 1 uM preincubated for 5 mins before NADPH addition and measured up to 30 mins by LC-MS/MS analysis; type: ADME, Microsome; settings: 0.5 h
CYP2D6 = CYP2D6 (Homo sapiens, UniProt P10635); experiment: Inhibition of CYP2D6 in pooled human liver microsomes at 10 uM pre-incubated for 5 mins before NADPH addition and measured after 10 mins by UPLC-MS/MS analysis relative to control; type: ADME
Chain of CYP2D6 (P10635 whole entry): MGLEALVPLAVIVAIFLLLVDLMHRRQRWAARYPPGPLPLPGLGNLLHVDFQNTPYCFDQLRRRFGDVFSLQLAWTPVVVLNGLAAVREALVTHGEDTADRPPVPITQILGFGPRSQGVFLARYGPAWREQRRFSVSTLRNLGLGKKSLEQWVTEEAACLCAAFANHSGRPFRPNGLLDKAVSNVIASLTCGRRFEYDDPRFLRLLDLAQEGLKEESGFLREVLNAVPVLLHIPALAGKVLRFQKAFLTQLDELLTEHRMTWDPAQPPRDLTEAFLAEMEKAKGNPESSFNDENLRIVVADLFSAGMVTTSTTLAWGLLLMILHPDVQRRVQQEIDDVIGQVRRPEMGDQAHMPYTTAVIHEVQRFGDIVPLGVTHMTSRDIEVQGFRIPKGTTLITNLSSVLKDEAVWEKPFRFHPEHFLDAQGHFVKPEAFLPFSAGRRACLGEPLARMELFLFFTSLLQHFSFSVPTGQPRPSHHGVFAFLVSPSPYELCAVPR

CYP2C9 = CYP2C9 (Homo sapiens, UniProt P11712); experiment: Inhibition of CYP2C9 in pooled human liver microsomes at 10 uM pre-incubated for 5 mins before NADPH addition and measured after 10 mins by UPLC-MS/MS analysis relative to control; type: ADME
Chain of CYP2C9 (P11712 whole entry): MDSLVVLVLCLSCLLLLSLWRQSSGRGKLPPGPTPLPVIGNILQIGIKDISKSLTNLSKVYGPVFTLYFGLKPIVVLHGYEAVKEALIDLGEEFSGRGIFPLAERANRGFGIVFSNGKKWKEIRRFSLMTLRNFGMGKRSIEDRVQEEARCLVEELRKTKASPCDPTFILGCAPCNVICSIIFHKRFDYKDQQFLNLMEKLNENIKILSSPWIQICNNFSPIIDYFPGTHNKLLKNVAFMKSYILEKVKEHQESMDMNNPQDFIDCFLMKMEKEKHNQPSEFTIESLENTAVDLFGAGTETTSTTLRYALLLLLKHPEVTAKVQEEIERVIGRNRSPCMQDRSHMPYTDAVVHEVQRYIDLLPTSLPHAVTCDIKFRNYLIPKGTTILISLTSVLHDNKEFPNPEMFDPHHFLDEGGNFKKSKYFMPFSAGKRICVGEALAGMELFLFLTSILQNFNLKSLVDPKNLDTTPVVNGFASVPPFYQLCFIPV

CYP3A4 = CYP3A4 (Homo sapiens, UniProt P08684); experiment: Inhibition of CYP3A4 in pooled human liver microsomes at 10 uM pre-incubated for 5 mins before NADPH addition and measured after 10 mins by UPLC-MS/MS analysis relative to control; type: ADME
Chain of CYP3A4 (P08684 whole entry): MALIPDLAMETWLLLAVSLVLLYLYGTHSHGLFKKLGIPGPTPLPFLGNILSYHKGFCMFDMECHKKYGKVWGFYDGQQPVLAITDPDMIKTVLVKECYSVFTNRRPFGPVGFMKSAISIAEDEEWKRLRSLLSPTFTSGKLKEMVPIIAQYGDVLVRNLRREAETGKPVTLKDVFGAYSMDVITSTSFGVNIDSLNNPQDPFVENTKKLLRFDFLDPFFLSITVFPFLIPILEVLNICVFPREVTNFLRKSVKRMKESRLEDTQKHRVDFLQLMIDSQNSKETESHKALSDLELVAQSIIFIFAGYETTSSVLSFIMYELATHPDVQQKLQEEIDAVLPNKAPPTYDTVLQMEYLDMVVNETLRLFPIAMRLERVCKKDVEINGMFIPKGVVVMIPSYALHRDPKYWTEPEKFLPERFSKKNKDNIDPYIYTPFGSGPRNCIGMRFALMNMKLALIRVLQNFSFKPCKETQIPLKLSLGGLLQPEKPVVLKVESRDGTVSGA

[3] = Cytotoxicity in human HuH7 cells assessed as inhibition of cell growth at 3 uM incubated for 72 hrs by CCK8 assay relative to control; type: cell-based, Huh-7; settings: read-out: GI
[4] = Cytotoxicity in human HepG2 cells assessed as inhibition of cell growth at 3 uM incubated for 72 hrs by CCK8 assay relative to control; type: cell-based; settings: read-out: GI
[5] = Cytotoxicity in human HepG2 cells assessed as inhibition of cell growth at 10 uM incubated for 72 hrs by CCK8 assay relative to control; type: cell-based; settings: read-out: GI
[6] = Cytotoxicity in human HEK293 cells assessed as inhibition of cell growth at 3 uM incubated for 72 hrs by CCK8 assay relative to control; type: cell-based; settings: read-out: GI
[7] = Cytotoxicity in human HEK293 cells assessed as inhibition of cell growth at 10 uM incubated for 72 hrs by CCK8 assay relative to control; type: cell-based; settings: read-out: GI
[8] = AUC(last) in rat at 1 mg/kg, iv measured up to 24 hrs by LC-MS/MS analysis; type: ADME, organism-based; set-up: dose 1 mg/kg, route intravenous, time 0 - last; settings: in vivo
[9] = Half life in rat at 1 mg/kg, iv measured up to 24 hrs by LC-MS/MS analysis; type: ADME, organism-based; settings: in vivo
[10] = Clearance in rat at 1 mg/kg, iv measured up to 24 hrs by LC-MS/MS analysis; type: ADME, organism-based; settings: in vivo
[11] = Volume of distribution at steady state in rat at 1 mg/kg, iv measured up to 24 hrs by LC-MS/MS analysis; type: ADME, organism-based; settings: in vivo, read-out: Vdss
[12] = Cmax in rat at 10 mg/kg, po measured up to 24 hrs by LC-MS/MS analysis; type: ADME, organism-based; set-up: dose 10 mg/kg, route oral; settings: in vivo
[13] = AUC (last) in rat at 10 mg/kg, po measured up to 24 hrs by LC-MS/MS analysis; type: ADME, organism-based; set-up: dose 10 mg/kg, time 0 - last, route oral; settings: in vivo
[14] = Oral bioavailability in rat at 10 mg/kg measured up to 24 hrs by LC-MS/MS analysis; type: ADME, organism-based; settings: in vivo
[15] = Drug level in liver of Wistar rat at 10 mg/kg, po measured at 4 hrs by LC-MS/MS analysis; type: ADME, organism-based; settings: read-out: Drug uptake
[16] = Drug level in plasma of Wistar rat at 10 mg/kg, po measured at 4 hrs by LC-MS/MS analysis; type: ADME, organism-based
[17] = Ratio of dug level in liver to plasma of Wistar rat at 10 mg/kg, po measured at 4 hrs by LC-MS/MS analysis; type: ADME, organism-based
[18] = Protein binding in rat plasma; type: ADME, cell-free; settings: read-out: PPB
[19] = Protein binding in human plasma; type: ADME, cell-free; settings: read-out: PPB
[20] = Drug level in liver of Wistar rat at 10 mg/kg, po measured up to 8 hrs by LC-MS/MS analysis; type: ADME, organism-based; settings: in vivo
[21] = target: T1, Nonstructural protein 5A (Hepatitis C virus) (UniProt Q5L478); experiment: Inhibition of NS5A in HCV genotype 1b infected in human HuH7.5/Con1/SG-Neo(I)-hRluc2aUb cells assessed as inhibition of replicon levels at 1 uM incubated for 72 hrs by luciferase reporter gene assay relative to control; settings: Hepatitis C virus subtype 1b
T1 sequence (whole entry): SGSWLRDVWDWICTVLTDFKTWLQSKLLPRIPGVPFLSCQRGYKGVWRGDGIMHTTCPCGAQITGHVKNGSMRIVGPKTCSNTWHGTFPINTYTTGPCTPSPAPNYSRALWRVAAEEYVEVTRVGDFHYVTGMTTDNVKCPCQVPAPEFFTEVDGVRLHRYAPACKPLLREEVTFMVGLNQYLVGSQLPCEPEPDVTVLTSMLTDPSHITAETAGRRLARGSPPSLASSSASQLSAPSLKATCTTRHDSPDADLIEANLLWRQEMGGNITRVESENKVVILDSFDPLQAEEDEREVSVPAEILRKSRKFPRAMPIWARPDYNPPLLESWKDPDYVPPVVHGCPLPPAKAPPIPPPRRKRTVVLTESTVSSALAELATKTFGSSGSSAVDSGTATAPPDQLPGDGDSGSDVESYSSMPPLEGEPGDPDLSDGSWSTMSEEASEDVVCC

[22] = target: T1, Nonstructural protein 5A (Hepatitis C virus); experiment: Inhibition of NS5A in HCV genotype 2a infected in human Huh7.5/J6/JFH1/EMCVIRES/hRlucNeo cells assessed as inhibition of replicon levels at 1 uM incubated for 72 hrs by luciferase reporter gene assay; settings: Hepatitis C virus subtype 2a

COC(=O)N[C@H](C(=O)N1CCC[C@H]1c1nc(Cl)c(-c2ccc3c(c2)OCC(C)(C)COc2cc(-c4[nH]c([C@@H]5CCCN5C(=O)[C@@H](NC(=O)OC)C(C)C)nc4Cl)ccc2-3)[nH]1)C(C)C
Drug metabolism [1]: 0 nmol/min/mg | Drug metabolism [2]: 0 nmol/min/mg | inhibition at 10 min, 10 µM (CYP2D6): 6% | inhibition at 10 min, 10 µM (CYP2C9): 29% | inhibition at 10 min, 10 µM (CYP3A4): 6% | inhibition at 72 h, 3 µM [3]: 25% | inhibition at 72 h, 3 µM [4]: 23% | inhibition at 72 h, 10 µM [5]: 27% | inhibition at 72 h, 3 µM [6]: 44% | inhibition at 72 h, 10 µM [7]: 63% | AUC(0-t) at 24 h [8]: 0.43 µM·h | half-life [9]: 3.8 h | clearance [10]: 37 mL/min/kg | Vd [11]: 10 L/kg | Cmax [12]: 500 nM | AUC(0-t) at 24 h [13]: 2.4 µM·h | bioavailability [14]: 56% | concentration at 4 h [15]: 7100 nM | concentration at 4 h [16]: 640 nM | Kp at 4 h [17]: 11 | fraction unbound [18]: < 0.01 | fraction unbound [19]: < 0.01 | Drug uptake [20]: Active

COC(=O)N[C@H](C(=O)N1CCC[C@H]1c1ncc(-c2cc3c(cc2OC)C2(CC3(C)C)CC(C)(C)c3cc(-c4cnc([C@@H]5CCCN5C(=O)[C@@H](NC(=O)OC)C(C)C)[nH]4)c(OC)cc32)[nH]1)C(C)C
inhibition [21]: 79% | inhibition [22]: 13%

COC(=O)N[C@H](C(=O)N1CCC[C@H]1c1ncc(-c2ccc3c(ccc4sc(-c5cnc([C@@H]6CCCN6C(=O)[C@@H](NC(=O)OC)C(C)C)[nH]5)nc43)c2)[nH]1)C(C)C
inhibition [22]: 0%
